According to patent US12002595B2, “Separation of metal ions by liquid-liquid extraction” (priority 2016, dated 2024):

Assays:
[1] = Stability constant (log β) of ligand-metal complexes; format: binding; conditions: Log β110 (Th^4+) versus Log β110 (Eu^3+)
Protocol: Solution Thermodynamics. All titrant solutions were degassed by boiling for 1 h while being purged under Ar. Carbonate-free 0.1 M KOH was prepared from concentrate (J. T Baker Dilut-It) and was standardized by titrating against 0.1 M potassium hydrogen phthalate (99.95%, Sigma Aldrich). Solutions of 0.1 M HCl were similarly prepared and were standardized by titrating against TRIS (99.9%, J. T. Baker). The glass electrode (Metrohm—Micro Combi—response to [H+]) used for the pH measurements was calibrated at 25.0° C. and at an ionic strength of 0.1 M (KCl) before each potentiometric or spectrophotometric titration. The calibration data were analyzed using the program GLEE (Gans & O'Sullivan, Talanta, 2000, 51 (1): 33-37) to refine for the E° and slope. All thermodynamic measurements were conducted at 25.0° C., in 0.1 M KCl supporting electrolyte under positive Ar gas pressure. The automated titration system was controlled by an 867 pH Module (Metrohm). Two-milliliter Dosino 800 burets (Metrohm) dosed the titrant (0.1 M KOH or 0.1 M HCl) into the thermostated titration vessel (5-90 mL). UV-visible spectra were acquired with an Ocean Optics USB4000-UV-vis spectrometer equipped with a TP-300 dip probe (Ocean Optics; path length of 10 mm), fiber optics and a DH-2000 light source (deuterium and halogen lamps). The fully automated titration system and the UV-vis spectrophotometer were coordinated by LBNL titration system, a computer program developed in house.
Incremental Spectrophotometric Titrations. This method was used to determine the protonation constants of 3,4,3-LI(CAM) as well as the stability constants of its complexes formed with Eu(III), Zr(IV) and ^232Th(IV). The experimental titration setup is similar to previously described systems (Sturzbecher-Hoehne, et al., Radiochimica Acta., 2013, 101 (6): 359-366). For the 3,4,3-LI(CAM) protonation (and Eu(III)-3,4,3-LI(CAM) complexes), titrations were performed with an initial concentration of 50 μM of 3,4,3-LI(CAM) (and 50 μM of Eu(III)) resulting in absorbance values included between 0 and 1.0 throughout the titration. Typically, 9 mL of a sample containing 3,4,3-LI(CAM) (and Eu(III)) and the supporting electrolyte (KCl/HCl) were incrementally perturbed by addition of 0.025 mL of carbonate-free 0.1 M KOH followed by a time delay of 80 s. Buffering of the solution was ensured by the addition of 10 mM of HEPES, 10 mM of CHES and 10 mM of MES. Between 130 and 250 data points were collected per titration, each data point including a pH measurement and a UV-Vis spectrum (250-450 nm) over the pH range 1.5 to 12.0. All spectra were corrected for dilution before data fitting. The entire procedure (electrode calibrate, titration and data treatment) was performed independently five times for the protonation constants and four times for the Eu(III)-3,4,3-LI(CAM) complexes. For the Zr(IV) and Th(IV) complexes, titrations were performed similarly but in the presence of DTPA to avoid the formation of metal hydroxides at low pH, before the uptake by 3,4,3-LI(CAM). For each metal, three titrations were performed independently in the presence of 1.1 to 40 equivalents of DTPA.
Data Treatment. […] All metal and chelator concentrations were held at estimated values determined from the volume of standardized stock solutions. All species formed with 3,4,3-LI(CAM) were considered to have significant absorbance to be observed in the UV-vis spectra and were therefore included in the refinement process. […]

[2] = Extraction of plutonium(IV) by HDEHP as a function of pH with hold-back reagent; conditions: for % Extraction: 40 mM hold-back reagent, 0.5 M HDEHP
Protocol: All liquid-liquid extractions were conducted using a 1:1 organic to aqueous phase ratio for a total volume of 1 mL. Samples were pH adjusted by HNO3 and prepared for a final concentration of 1.0 M sodium lactate, 40 mM of hold-back reagent (160 mM in the case of the HOPO monomer), and 2.0 M Na^+. The concentration of the trivalent f-element was dependent on the availability and radioactivity of the isotopes. The organic phase consisted of 0.5 M HDEHP in kerosene. All samples were incubated in a thermostatic shaker held at 28° C. and rocked at 280 rpm for 90 minutes. To ensure complete phase separation, samples were left overnight at room temperature to equilibrate. Radioactive samples were analyzed by liquid scintillation counting (LSC). The analytical protocol consisted of diluting 10 uL of radioactive sample into 10 mL of Ultima Gold™. Ultima Gold™ is a commercially available analytical reagent commonly used for LSC. The resulting analytical samples were shaken for 10 min prior to counting on a Perkin-Elmer Packard Tri-Carb instrument (model B4430).
Data was analyzed by the distribution ratio (Dm), separation factor (SFm1/m2) and extraction percentage (% Extraction) as defined by Equations (6), (7) and (8), respectively. Equation (8) uses concentrations of the metal in each phase since the aqueous: organic ratio was 1. Both the organic and aqueous phases were analyzed after liquid-liquid extraction and phase separation. These calculation methods rely on the assumptions that no metal (M) is lost to sorption or precipitation and that no volume variation occurred during the mass transfer between the aqueous and organic phases.
In FIG. 18, aqueous phase: [ligand]=40 mM, buffer sodium lactate/sodium nitrate, organic phase: [HDEHP]=0.5 M, kerosene diluent. T=25° C. O/A=1, one contact. Initial metal concentrations: [Pu-242]=5 μM. Phases analyzed after one contact. Contact time: 30 min. Limit of detection: 0.03% of the initial Pu-242 activity. Data for separation of tetravalent metal ions from trivalent metal ions using 3,4,3-LI(1,2-HOPO) as a hold-back reagent for tetravalent metal ions are shown in TABLE 0.1.

[3] = Lu^3+; 25° C.; cited from earlier work

Row | Compound | Δ log β [1] | % Extraction ([2]; pH 0.25) [%] | % Extraction ([2]; pH 0.85) [%] | % Extraction ([2]; pH 1.78) [%] | % Extraction ([2]; pH 2.71) [%] | % Extraction ([2]; pH 2.87) [%] | % Extraction ([2]; pH 3.62) [%] | % Extraction ([2]; pH 4.52) [%] | extraction yield of Pu^4+ (upper limit, instrumental detection limit) ([2]; value plotted on FIG. 18, all tested pH) [%] | log βML [3] | % Extraction ([2]; pH 0.40) [%] | % Extraction ([2]; pH 1.27) [%] | % Extraction ([2]; pH 1.84) [%] | % Extraction ([2]; pH 2.55) [%] | % Extraction ([2]; pH 2.75) [%] | % Extraction ([2]; pH 3.45) [%] | % Extraction ([2]; pH 4.29) [%]
1 | O=C(NCCCN(CCCCN(CCCNC(=O)c1cccc(=O)n1O)C(=O)c1cccc(=O)n1O)C(=O)c1cccc(=O)n1O)c1cccc(=O)n1O [3,4,3-LI(1,2-HOPO)] | 19.9 | 0.00 | 0.00 | 0.00 | 0.00 | 0.00 | 0.00 | 0.00 | ≤ 0.03 | 21.2 ± 0.1 | – | – | – | – | – | – | –
2 | O=C(O)CN(CCN(CC(=O)O)CC(=O)O)CCN(CC(=O)O)CC(=O)O [DTPA, Diethylenetriaminepentaacetic acid, reference compound] | 6.3 | – | – | – | – | – | – | – | – | – | 95.24 | 4.08 | 1.17 | 0.63 | 0.73 | 0.65 | 0.29
